Assay results taken from patent US6797714B2, “Carboxyl substituted chroman derivatives useful as beta 3 adrenoreceptor agonists” (Bayer Pharmaceuticals Corporation, priority 1997, dated 2004).

SMILES	melting point [°C]
CCOC(=O)c1ccc2c(c1)CCC(CNC[C@H](O)c1cccc(Cl)c1)O2.Cl (some centres unmarked)	234 to 235
CCOC(=O)CCc1ccc2c(c1)CCC(CNC[C@H](O)c1cccc(Cl)c1)O2.Cl (some centres unmarked)	189 to 190
